Measured values reported in patent publication US20220380341A1, “INHIBITORS OF HIV-1 NEF FOR THE TREATMENT OF HIV DISEASE” (priority 2018, published 2022).
Read-outs that look alike come from different tables or passages of the source.

Tests used:
TZM-bl cell line = type: cell-based; settings: 1 μM
Outline: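 TZM-bl cells (HIV-1 LTR-luciferase) infected with HIV-1NL4-3 with compound at 1 μM; luciferase read 48 h later. Percent inhibition normalized to DMSO wild-type infection (0%) and Nef-defective HIV-1 infection (100% of Nef-dependent effect). Viability in uninfected TZM-bl cells by Cell Titer Blue.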

HIV-1 NefNL4-3 = HIV-1 NefNL4-3 (Human immunodeficiency virus type 1 group M subtype B, UniProt P03406, A33V/T15A/T51N/V11I); test: Surface plasmon resonance binding to recombinant full-length Nef (NL4-3); settings: for RU30/RUNef (extent of binding): response units at 30 μM relative to Nef immobilized on the SPR chip
HIV-1NL4-3 = test: HIV-1 infectivity assay in TZM-bl reporter cell line (LTR-luciferase, 48 h); type: cell-based; settings: for inhibition at 1 µM: Human immunodeficiency virus 1, TZM-bl
Outline: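 Nef-dependent infectivity in TZM-bl cells: HIV-1NL4-3 infection with 1 μM compound, luciferase read at 48 h, normalized against DMSO wild-type and Nef-defective controls. Compound cytotoxicity in uninfected cells measured by Cell Titer Blue.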

[1] = KD, M, Table 4, SPR fit 2-step induced fit, KD = koff/kon × koff2/(koff2 + kon2)
[2] = Nef NL4-3 Binding, SPR 2-state fitting KD, Table 1, 2-step induced-fit model
[3] = Table 4, 2-step induced fit, T = 1/koff2
[4] = read-out: Nef NL4-3 Binding, SPR 1:1 or 2-site fitting KD2, Table 1, 2-site fit, second component
[5] = 1.0 μM, TZM-bl reporter cell line, Table 4, read-out: % Infectivity Inhibition
[6] = 48 h, Table 1, TZM-bl cells, 1 μM, 48 h, 100% = Nef-defective HIV-1, read-out: HIV-1 Infectivity % Inhibition Norm. to Δ-Nef @ 1 μM
[7] = Table 1, 1:1 Langmuir fit where the KD2 cell says '1 to 1 fitting', else 2-site fit

Row | Compound | % Cell Viability (TZM-bl cell line; human) [%] | Percent Viability @ 1 μM (TZM-bl cells) (TZM-bl cell line; human) [%] | Kd (HIV-1 NefNL4-3) [nM] | Kd (HIV-1 NefNL4-3; [1]) [nM] | Kd (HIV-1 NefNL4-3; [2]) [nM] | T, minutes (residence time) (HIV-1 NefNL4-3; [3]) | RU30/RUNef (extent of binding) (HIV-1 NefNL4-3) | inhibition at 1 µM (HIV-1NL4-3; [5]) [%] | inhibition at 1 µM (HIV-1NL4-3; [6]) [%] | other results
1 | CS(=O)(=O)c1ccc(-c2nn(-c3nc4cc(Cl)ccc4[nH]3)c(O)c2CCC2CCOCC2)cc1 [Compound I-168, 1-(5-chloro-1H-1,3-benzodiazol-2-yl)-3-(4-methanesulfonylphenyl)-4-[2-(oxan-4-yl)ethyl]-1H-pyrazol-5-ol] | 97.9 | 97.9 | 751 | 2730 | 2730 | 4.96E + 00 minutes | 6.97E- 03 | 19.2 | 19.2 | Kd (HIV-1 NefNL4-3; [4]): 4970 nM
2 | Oc1c(CCC2CCN(c3ncc(F)cn3)CC2)c(C2CC2)nn1-c1nc2cc(Cl)ccc2[nH]1 [Compound I-901, 1-(5-chloro-1H-1,3-benzodiazol-2-yl)-3-cyclopropyl-4-{2-[1-(5-fluoropyrimidin-2-yl)piperidin-4-yl]ethyl}-1H-pyrazol-5-ol] | 100 | 105.0 | 481 | 0.0153 | 0.0153 | 2.46E + 05 minutes | 2.23E- 03 | 14.3 | 14.3 | 
3 | 1-(1H-1,3-benzodiazol-2-yl)-4-[2-(4-fluorophenyl)ethyl]-3-(1-{[2-(1H-pyrrol-1-yl)phenyl]methyl}piperidin-4-yl)-1H-pyrazol-5-ol [Compound I-805] |  |  |  |  |  |  |  |  |  | Percent Viability @ 1 μM (TZM-bl cells) (TZM-bl cell line; Table 1, uninfected TZM-bl cells, Cell Titer Blue): 93.7%; Kd (HIV-1 NefNL4-3; Table 1, 1:1 Langmuir fit where the KD2 cell says '1 to 1 fitting', else 2-site fit, read-out: Nef NL4-3 Binding, SPR 1:1 or 2-site fitting KD1): 596 nM; HIV-1 Infectivity % Inhibition Norm. to Δ-Nef @ 1 μM (HIV-1NL4-3; Table 1, TZM-bl cells, 1 μM, 48 h, 100% = Nef-defective HIV-1): 33.9%
4 | Oc1c(CC2CCOCC2)c(-c2ccccc2F)nn1-c1nc2ccccc2[nH]1 [Compound I-186, 1-(1H-1,3-benzodiazol-2-yl)-3-(2-fluorophenyl)-4-[(oxan-4-yl)methyl]-1H-pyrazol-5-ol] | 99.3 |  |  | 11700 |  | 7.72E + 00 minutes | 1.62E- 02 | 61.5 |  | 
5 | CC(C)OC(=O)N1CCC(CCc2c(-c3ccc(Br)cn3)nn(-c3nc4ccccc4[nH]3)c2O)CC1 [Compound I-717, propan-2-yl4-{2-[1-(1H-1,3-benzodiazol-2-yl)-3-(5-bromopyridin-2-yl)-5-hydroxy-1H-pyrazol-4-yl]ethyl}piperidine-1-carboxylate] |  | 104.1 |  |  |  |  |  |  | -1.8 | Nef NL4-3 Binding, SPR 1:1 or 2-site fitting KD1 (HIV-1 NefNL4-3; [7]): No Interaction
6 | Oc1c(CC2CCOCC2)c(-c2ccccc2)nn1-c1nc2ccccc2[nH]1 [Compound I-183, 1-(1H-1,3-benzodiazol-2-yl)-4-[(oxan-4-yl)methyl]-3-phenyl-1H-pyrazol-5-ol] | 100 |  |  |  |  |  | 1.71E- 03 | 37.8 |  | Kd (HIV-1 NefNL4-3; KD, M, Table 4, SPR fit 1:1 Langmuir, KD = koff/kon): 2270 nM; T, minutes (residence time) (HIV-1 NefNL4-3; Table 4, 1:1 Langmuir fit, T = 1/koff): 7.61E + 00 minutes
7 | CS(=O)(=O)c1ccc(-c2nn(-c3cc(C(F)(F)F)n[nH]3)c(O)c2CCC2CCOCC2)cc1 [Compound I-611, 3-(4-methanesulfonylphenyl)-4-[2-(oxan-4-yl)ethyl]-5′-(trifluoromethyl)-2′H-[1,3′-bipyrazol]-5-ol] |  | 99.6 |  |  |  |  |  |  |  | Nef NL4-3 Binding, SPR 1:1 or 2-site fitting KD1 (HIV-1 NefNL4-3; Table 2, 1:1 Langmuir fit where the KD2 cell says '1 to 1 fitting', else 2-site fit): No interaction; inhibition at 1 µM (HIV-1NL4-3; 48 h, Table 2, TZM-bl cells, 1 μM, 48 h, 100% = Nef-defective HIV-1, read-out: HIV-1 Infectivity % Inhibition Norm. to Δ-Nef @ 1 μM): 65.7%
8 | COCCc1nn(-c2nc3ccccc3[nH]2)c(O)c1CCc1ccc(F)cc1 [Compound I-125, 1-(1H-1,3-benzodiazol-2-yl)-4-[2-(4-fluorophenyl)ethyl]-3-(2-methoxyethyl)-1H-pyrazol-5-ol] | 100 | 101.1 | 3070 | 3130 | 3130 | 8.87E + 00 minutes | 2.86E- 03 | 21.2 | 21.2 | 
9 | CS(=O)(=O)c1ccc(-c2nn(-c3nc4ccccc4[nH]3)c(O)c2CCC2CCOCC2)cc1 [Compound I-149, 1-(1H-1,3-benzodiazol-2-yl)-3-(4-methanesulfonylphenyl)-4-[2-(oxan-4-yl)ethyl]-1H-pyrazol-5-ol] |  | 98.5 | 2330 |  |  |  |  |  | 54.5 | 
10 | CN(C)S(=O)(=O)N1CCC(c2nn(-c3nc4ccccc4[nH]3)c(O)c2CCC2CCOCC2)CC1 [Compound I-724, 4-[1-(1H-1,3-benzodiazol-2-yl)-5-hydroxy-4-[2-(oxan-4-yl)ethyl]-1H-pyrazol-3-yl]-N,N-dimethylpiperidine-1-sulfonamide] |  | 98.6 |  |  |  |  |  |  | 55.8 | Nef NL4-3 Binding, SPR 1:1 or 2-site fitting KD1 (HIV-1 NefNL4-3; [7]): No Interaction
11 | O=C(C1CCOC1)N1CCC(c2nn(-c3nc4ccccc4[nH]3)c(O)c2CCc2ccc(F)cc2)CC1 (stereo not shown) [Compound I-736, 1-(1H-1,3-benzodiazol-2-yl)-4-[2-(4-fluorophenyl)ethyl]-3-[1-(oxolane-3-carbonyl)piperidin-4-yl]-1H-pyrazol-5-ol] | 96.0 | 96.0 | 99.3 | 2.06 | 2.06 | 1.97E + 03 minutes | 1.02E- 02 | 7.5 | 7.5 | Kd (HIV-1 NefNL4-3; [4]): 1940 nM
12 | O=C1CCCN1CCc1c(-c2ccc(C(F)(F)F)cc2)nn(-c2nc3ccccc3[nH]2)c1O [Compound I-132, 1-{2-[1-(1H-1,3-benzodiazol-2-yl)-5-hydroxy-3-[4-(trifluoromethyl)phenyl]-1H-pyrazol-4-yl]ethyl}pyrrolidin-2-one] | 96.5 | 96.5 | 61.8 | 1700 | 1700 | 5.46E + 00 minutes | 5.62E- 03 | 15.7 | 15.7 | Kd (HIV-1 NefNL4-3; [4]): 8010 nM
13 | O=C(Cc1ccncc1)N1CCCC(c2nn(-c3nc4ccccc4[nH]3)c(O)c2CCc2ccc(F)cc2)C1 (stereo not shown) [Compound I-757, 1-{3-[1-(1H-1,3-benzodiazol-2-yl)-4-[2-(4-fluorophenyl)ethyl]-5-hydroxy-1H-pyrazol-3-yl]piperidin-1-yl}-2-(pyridin-4-yl)ethan-1-one] |  | 102.8 | 2390 |  |  |  |  |  | 17.2 | 
14 | CC(C)(C)OC(=O)N1CCC(c2nn(-c3nc4cccc(Cl)c4[nH]3)c(O)c2CCc2ccc(F)cc2)CC1 [Compound I-217, tert-butyl 4-[1-(7-chloro-1H-1,3-benzodiazol-2-yl)-4-[2-(4-fluorophenyl)ethyl]-5-hydroxy-1H-pyrazol-3-yl]piperidine-1-carboxylate] |  | 104.9 |  |  |  |  |  |  | 0.1 | Nef NL4-3 Binding, SPR 1:1 or 2-site fitting KD1 (HIV-1 NefNL4-3; [7]): No Interaction
15 | Oc1c(CCc2ccc(F)cc2)c(C2CCCN(CC(F)(F)F)C2)nn1-c1nc2ccccc2[nH]1 (stereo not shown) [Compound I-1002, 1-(1H-1,3-benzodiazol-2-yl)-4-[2-(4-fluorophenyl)ethyl]-3-[1-(2,2,2-trifluoroethyl)piperidin-3-yl]-1H-pyrazol-5-ol] |  | 96.4 |  |  |  |  |  |  | 22.7 | Kd (HIV-1 NefNL4-3; [4]): 1710 nM
16 | O=C(c1ccccn1)N1CCC(c2nn(-c3nc4ccccc4[nH]3)c(O)c2CCc2ccc(F)cc2)CC1 [Compound I-730, 1-(1H-1,3-benzodiazol-2-yl)-4-[2-(4-fluorophenyl)ethyl]-3-[1-(pyridine-2-carbonyl)piperidin-4-yl]-1H-pyrazol-5-ol] |  | 95.1 |  |  |  |  |  |  | 24.6 | Nef NL4-3 Binding, SPR 1:1 or 2-site fitting KD1 (HIV-1 NefNL4-3; [7]): No Interaction
